{
  "source": "patent US11207277B2",
  "about": "“Methods of treating diseases associated with high-fat diet and vitamin a deficiency using retinoic acid receptor agonists” (Cornell University, priority 2013, dated 2021)",
  "system": "α-SMA",
  "assay": "α-SMA immunofluorescence of liver sections (hepatic stellate cell activation)",
  "format": "in vivo",
  "details": "HF diet mice + AC261066 or CD1530, vs HF-vehicle",
  "excerpt": "WT male C57/BL6 male mice were maintained on either a standard laboratory chow-fed diet (CFD) with 13% kcal fat, (diet #5053, Lab Diet, Inc, St. Louis, Mo.) or a high fat, western style diet (HFD) with 60% kcals from fat, (diet #58126, Lab Diet, Inc., St. Louis, Mo.) for 4 months. One month after the start of the high fat diet treatment, the high fat diet group was further split into 2 groups for 3 months: i) high fat diet and the drinking water containing 1% DMSO; ii) high fat diet and the drinking water containing 1.5 mg/100 ml AC261066, a specific RARβ agonist. Then mice were sacrificed by cervical dislocation. Blood and various tissue samples were harvested.\nStaining. Fresh mouse liver samples were embedded in optimal cutting temperature (OCT) medium and immediately frozen to −70 centigrade. Cryosections were then fixed in 4% formaldehyde for 1 hr at room temp. Slides were then rinsed three times in deionized water (dH2O) for 30 s, followed by treatment with 0.5% Triton X-100 in PBS for 5 min. Sections were then washed three times with PBS for 5 min. Samples were with incubated 2% bovine serum albumin (BSA) for 30 min at room temperature to block for unspecific antibody binding. Following blocking, sections were washed three times in PBS and incubated with mouse monoclonal antibody against α-SMA (1:500) (Dako, Inc) for 24 h at 4° C. After 24 h sections were washed three times in PB and incubated with Alexa-Flour-488 anti-mouse secondary anti-body (1:500) (Invitrogen, Inc) for 30 min at room temperature. Sections were then washed three times in PBS and incubated with working strength oil-red O solution for 30 minutes at room temperature. Sections were then rinsed for 30 minutes under running tap water and cover-slipped with Vectashield hard mount plus DAPI (Vector Labs, Inc).",
  "note": "“Also recorded” adds a separate entry of the source.",
  "data": [
    {"smiles": "CCCCOCCOc1nc(-c2ccc(C(=O)O)c(F)c2)sc1C", "note": "[AC261066]", "values": [
      {"measurement": "α-SMA positive staining in liver (HSC activation)", "result": "diminished activation of hepatic stellate cells; also recorded: decreased expression of α-SMA; also recorded: decreased intensity and regions of α-SMA positive staining"},
      {"measurement": "α-SMA positive staining in liver (HSC activation)", "setting": "listed as AC261011", "result": "α-SMA protein is decreased"}
    ]}
  ]
}
